Data from ChEMBL document CHEMBL1137538, “Natural triterpenoids from Cecropia lyratiloba are cytotoxic to both sensitive and multidrug resistant leukemia cell lines” (Bioorg Med Chem, 2007).

What was measured:
[1] = Cytotoxicity against human multidrug resistant Lucena1 cells assessed as cell viability after 48 hrs by MTT assay; type: functional, cell-based; conditions: Lucena 1, 48 h
K562 [2] = assay: Cytotoxicity against human K562 cells assessed as cell viability after 48 hrs by MTT assay; type: functional, cell-based; conditions: K562, 48 h
[3] = Induction of apoptosis in human multidrug resistant Lucena1 cells assessed as DNA fragmentation at 10 ug/mL by FACS analysis; type: functional
K562 [4] = assay: Activation of caspase 3 in human K562 cells at 50 ug/mL after 8 hrs by flow cytometry; type: functional
K562 [5] = assay: Activation of caspase 3 in human K562 cells at 50 ug/mL after 12 hrs by flow cytometry; type: functional
HEp-2 = assay: Cytotoxicity against human HEp2 cells assessed as cell viability; type: functional, cell-based
A549 = assay: Cytotoxicity against human A549 cells assessed as cell viability; type: functional, cell-based
K562 [6] = assay: Induction of apoptosis in human K562 cells assessed as DNA fragmentation at 10 ug/mL by FACS analysis; type: functional
K562 [7] = assay: Activation of caspase 3 in human K562 cells at 50 ug/mL after 24 hrs by flow cytometry; type: functional
K562 [8] = assay: Induction of apoptosis in human K562 cells assessed as DNA fragmentation at 50 ug/mL by FACS analysis; type: functional
Caco-2 = assay: Cytotoxicity against human Caco-2 cells assessed as cell viability; type: functional, cell-based
K562 [9] = assay: Induction of apoptosis in human K562 cells assessed as DNA fragmentation at 25 ug/mL by FACS analysis; type: functional
K562 [10] = assay: Activation of caspase 3 in human K562 cells at 50 ug/mL after 4 hrs by flow cytometry; type: functional
[11] = Induction of apoptosis in human multidrug resistant Lucena1 cells assessed as DNA fragmentation at 50 ug/mL by FACS analysis; type: functional
[12] = Induction of apoptosis in human multidrug resistant Lucena1 cells assessed as DNA fragmentation at 25 ug/mL by FACS analysis; type: functional

CC(=O)O[C@H]1[C@H](O)C[C@]2(C)[C@H]3CC=C4[C@H]5[C@](C(=O)O)(CC[C@@H](C)[C@@]5(C)O)CC[C@@]4(C)[C@]3(C)CC[C@H]2C1(C)C
IC50 [1]: 72.9 µM | IC50 (K562 [2]): 56.6 µM

CC(=O)O[C@@H]1C[C@]2(C)[C@H]3CC=C4[C@H]5[C@](C(=O)O)(CC[C@@H](C)[C@@]5(C)O)CC[C@@]4(C)[C@]3(C)CC[C@H]2C(C)(C)[C@H]1O
IC50 [1]: 41.4 µM | IC50 (K562 [2]): 38.4 µM

C[C@@H]1CC[C@]2(C(=O)O)CC[C@]3(C)C(=CC[C@@H]4[C@@]5(C)C[C@@H](O)[C@@H](O)C(C)(C)[C@@H]5CC[C@]43C)[C@@H]2[C@]1(C)O [EUSCAPHIC ACID]
Activity [3]: 10.48% | Activity (K562 [4]): 13.87% | IC50 [1]: 83.8 µM | Activity (K562 [5]): 18.69% | IC50 (HEp-2): 106 µM | IC50 (A549): 95.6 µM | Activity (K562 [6]): 13.58% | Activity (K562 [7]): 36.33% | Activity (K562 [8]): 62.93% | IC50 (Caco-2): 104 µM | IC50 (K562 [2]): 76.7 µM | Activity (K562 [9]): 27.75% | Activity (K562 [10]): 8.04% | Activity [11]: 63.57% | Activity [12]: 30.87%

C[C@@H]1CC[C@]2(C(=O)O)CC[C@]3(C)C(=CC[C@@H]4[C@@]5(C)C[C@@H](O)[C@H](O)C(C)(C)[C@@H]5CC[C@]43C)[C@@H]2[C@]1(C)O [TOMENTIC ACID]
IC50 [1]: 80.2 µM | IC50 (K562 [2]): 89.4 µM

CC[C@]1(O)C[C@H]2CN(CCc3c([nH]c4ccccc34)[C@@](C(=O)OC)(c3cc4c(cc3OC)N(C=O)[C@H]3[C@@](O)(C(=O)OC)[C@H](OC(C)=O)[C@]5(CC)C=CCN6CC[C@]43[C@@H]65)C2)C1 [VINCRISTINE]
IC50 [1]: > 0.1 µM | IC50 (K562 [2]): 0.006 µM
